The text below walks through data of the OligoGym collection.

HELM strings list units from the 5' end as sugar, base in round brackets, then linkage (d deoxyribose, r ribose, m 2'-O-methyl, p phosphodiester). Strings are as the collection lists them; they lack the last nucleoside at the 3' end of the tested compound. [moe] = 2'-O-(2-methoxyethyl) (MOE); [sp] = phosphorothioate linkage; [m5C] = 5-methylcytosine

The series has as its target ATXN2. The experiment in a line: mouse, dose not given. The following applies: ASO.

Consider “RNA1{[moe](G)[sp].[moe](T)p.[moe](G)p.[moe](G)p.[moe](T)p.d(G)[sp].d(T)[sp].d(G)[sp].d([m5C])[sp].d(G)[sp].d([m5C])[sp].d(A)[sp].d(T)[sp].d(G)[sp].d(T)[sp].[moe](A)p.[moe](G)p.[moe](A)[sp].[moe]([m5C])}$$$$ (last 3' nucleoside missing)”, for which the 3 h FOB score was determined as 5.5 score 0-7.
For “RNA1{[moe](G)[sp].[moe](T)p.[moe](G)p.[moe](G)p.[moe]([m5C])p.d(T)[sp].d(T)[sp].d(T)[sp].d(A)[sp].d(A)[sp].d(A)[sp].d(A)[sp].d(A)[sp].d([m5C])[sp].d(T)[sp].[moe](A)p.[moe](G)p.[moe](G)[sp].[moe](T)}$$$$ (last 3' nucleoside missing)”, the 3 h FOB score is 0 score 0-7.
In turn, “RNA1{[moe](G)[sp].[moe](T)p.[moe](G)p.[moe](T)p.[moe](T)p.d(G)[sp].d([m5C])[sp].d(A)[sp].d([m5C])[sp].d(A)[sp].d(T)[sp].d(A)[sp].d(G)[sp].d(G)[sp].d(T)[sp].[moe](T)p.[moe](A)p.[moe](G)[sp].[moe](A)}$$$$ (last 3' nucleoside missing)” showed a 3 h FOB score of 6.5 score 0-7.
Under “RNA1{[moe](G)[sp].[moe](T)p.[moe](G)p.[moe](T)p.[moe](T)p.d(T)[sp].d(A)[sp].d(A)[sp].d(T)[sp].d(T)[sp].d(T)[sp].d(G)[sp].d(T)[sp].d(A)[sp].d(A)[sp].[moe]([m5C])p.[moe](T)p.[moe](A)[sp].[moe](G)}$$$$ (last 3' nucleoside missing)” stands 4 score 0-7; under “RNA1{[moe](G)[sp].[moe](T)p.[moe](G)p.[moe](T)p.[moe](T)p.d(T)[sp].d(G)[sp].d(G)[sp].d(G)[sp].d(A)[sp].d(T)[sp].d(G)[sp].d([m5C])[sp].d(T)[sp].d(T)[sp].[moe]([m5C])p.[moe](A)p.[moe](G)[sp].[moe](A)}$$$$ (last 3' nucleoside missing)”, 5.5 score 0-7; under “RNA1{[moe](G)[sp].[moe](T)p.[moe](G)p.[moe](T)p.[moe](T)p.d([m5C])[sp].d(A)[sp].d(G)[sp].d(T)[sp].d(A)[sp].d(T)[sp].d(A)[sp].d(G)[sp].d(A)[sp].d(T)[sp].[moe](T)p.[moe](A)p.[moe](T)[sp].[moe]([m5C])}$$$$ (last 3' nucleoside missing)”, 3.75 score 0-7.
Under “RNA1{[moe](G)[sp].[moe](T)p.[moe](G)p.[moe](T)p.[moe](T)p.d([m5C])[sp].d(A)[sp].d(T)[sp].d(G)[sp].d(A)[sp].d([m5C])[sp].d(T)[sp].d(T)[sp].d(T)[sp].d([m5C])[sp].[moe](A)p.[moe](A)p.[moe](G)[sp].[moe](G)}$$$$ (last 3' nucleoside missing)” stands 3.5 score 0-7.
Under “RNA1{[moe](G)[sp].[moe](T)p.[moe](T)p.[moe](A)p.[moe]([m5C])[sp].d(T)[sp].d(G)[sp].d(T)[sp].d(T)[sp].d(T)[sp].d([m5C])[sp].d(G)[sp].d(A)[sp].[moe]([m5C])p.[moe]([m5C])p.[moe](T)[sp].[moe]([m5C])}$$$$ (last 3' nucleoside missing)” stands 6 score 0-7.
The substance “RNA1{[moe](G)[sp].[moe](T)p.[moe](T)p.[moe](A)p.[moe]([m5C])p.[moe](T)p.d(G)[sp].d(T)[sp].d(T)[sp].d(T)[sp].d([m5C])[sp].d(G)[sp].d(A)[sp].d([m5C])[sp].d([m5C])[sp].d(T)[sp].[moe]([m5C])p.[moe](T)[sp].[moe](G)}$$$$ (last 3' nucleoside missing)” had a 3 h FOB score of 5 score 0-7.
Under “RNA1{[moe](G)[sp].[moe](T)p.[moe](T)p.[moe](A)p.[moe]([m5C])p.d(T)[sp].d(G)[sp].d(T)[sp].d(T)[sp].d(T)[sp].d([m5C])[sp].d(G)[sp].d(A)[sp].d([m5C])[sp].d([m5C])[sp].[moe](T)p.[moe]([m5C])p.[moe](G)[sp].[moe](G)}$$$$ (last 3' nucleoside missing)” stands 4.5 score 0-7; under “RNA1{[moe](G)[sp].[moe](T)p.[moe](T)p.[moe](A)p.[moe]([m5C])p.d(T)[sp].d(G)[sp].d(T)[sp].d(T)[sp].d(T)[sp].d([m5C])[sp].d(G)[sp].d(A)[sp].d([m5C])[sp].d([m5C])[sp].[moe](T)p.[moe]([m5C])p.[moe](T)[sp].[moe](G)}$$$$ (last 3' nucleoside missing)”, 6.5 score 0-7; under “RNA1{[moe](G)[sp].[moe](T)p.[moe](T)p.[moe](A)p.d([m5C])[sp].d(T)[sp].d(G)[sp].d(T)[sp].d(T)[sp].d(T)[sp].d([m5C])[sp].d(G)[sp].d(A)[sp].d([m5C])[sp].[moe]([m5C])p.[moe](T)p.[moe]([m5C])p.[moe](T)[sp].[moe](G)}$$$$ (last 3' nucleoside missing)”, 6.5 score 0-7.
As for “RNA1{[moe](G)[sp].[moe](T)p.[moe](T)p.[moe](G)p.[moe](T)p.d(T)[sp].d(G)[sp].d(T)[sp].d(T)[sp].d(T)[sp].d(A)[sp].d([m5C])[sp].d(A)[sp].d(T)[sp].d(T)[sp].[moe](A)p.[moe](T)p.[moe](T)[sp].[moe](A)}$$$$ (last 3' nucleoside missing)”, the 3 h FOB score amounted to 0 score 0-7.
“RNA1{[moe](G)[sp].[moe](T)p.[moe](T)p.[moe](G)p.[moe]([m5C])p.d(A)[sp].d([m5C])[sp].d(A)[sp].d(T)[sp].d(A)[sp].d(G)[sp].d(G)[sp].d(T)[sp].d(T)[sp].d(A)[sp].[moe](G)p.[moe](A)p.[moe](A)[sp].[moe](T)}$$$$ (last 3' nucleoside missing)” came in with a 3 h FOB score of 6 score 0-7.
Regarding “RNA1{[moe](G)[sp].[moe](T)p.[moe](T)p.[moe](T)p.[moe](A)p.d(A)[sp].d(T)[sp].d(T)[sp].d(T)[sp].d(G)[sp].d(T)[sp].d(A)[sp].d(A)[sp].d([m5C])[sp].d(T)[sp].[moe](A)p.[moe](G)p.[moe](G)[sp].[moe](T)}$$$$ (last 3' nucleoside missing)”, the 3 h FOB score is 3.5 score 0-7.
The substance “RNA1{[moe](G)[sp].[moe](T)p.[moe](T)p.[moe](T)p.[moe](G)p.d(G)[sp].d(A)[sp].d(A)[sp].d(T)[sp].d([m5C])[sp].d(T)[sp].d(T)[sp].d(A)[sp].d(T)[sp].d(T)[sp].[moe](A)p.[moe](A)p.[moe](G)[sp].[moe]([m5C])}$$$$ (last 3' nucleoside missing)” came in with a 3 h FOB score of 1 score 0-7.
Consider “RNA1{[moe](G)[sp].[moe](T)p.[moe](T)p.[moe](T)p.[moe](T)p.d(G)[sp].d(T)[sp].d(T)[sp].d(T)[sp].d(A)[sp].d(A)[sp].d(T)[sp].d([m5C])[sp].d(A)[sp].d([m5C])[sp].[moe](A)p.[moe](G)p.[moe](T)[sp].[moe](T)}$$$$ (last 3' nucleoside missing)”, for which the 3 h FOB score is 2 score 0-7.
In the case of “RNA1{[moe](G)[sp].[moe](T)p.[moe](T)p.[moe]([m5C])p.[moe](A)p.d(A)[sp].d(A)[sp].d(T)[sp].d(T)[sp].d([m5C])[sp].d([m5C])[sp].d(G)[sp].d(G)[sp].d([m5C])[sp].d(T)[sp].[moe]([m5C])p.[moe]([m5C])p.[moe](A)[sp].[moe](T)}$$$$ (last 3' nucleoside missing)”, the 3 h FOB score amounted to 5.25 score 0-7.
Under “RNA1{[moe](G)[sp].[moe](T)p.[moe](T)p.[moe]([m5C])p.[moe](A)p.d(T)[sp].d(G)[sp].d(A)[sp].d([m5C])[sp].d(T)[sp].d(T)[sp].d(T)[sp].d([m5C])[sp].d(A)[sp].d(A)[sp].[moe](G)p.[moe](G)p.[moe](G)[sp].[moe](T)}$$$$ (last 3' nucleoside missing)” stands 2 score 0-7.
The substance “RNA1{[moe](G)[sp].[moe](T)p.[moe](T)p.[moe]([m5C])p.[moe](A)p.d(T)[sp].d(T)[sp].d([m5C])[sp].d([m5C])[sp].d(A)[sp].d(G)[sp].d(A)[sp].d(T)[sp].d(T)[sp].d(T)[sp].[moe]([m5C])p.[moe](A)p.[moe]([m5C])[sp].[moe](T)}$$$$ (last 3' nucleoside missing)” came in with a 3 h FOB score of 4 score 0-7.
For “RNA1{[moe](G)[sp].[moe](T)p.[moe](T)p.[moe]([m5C])p.[moe](A)p.d(T)[sp].d([m5C])[sp].d(T)[sp].d(T)[sp].d(T)[sp].d(T)[sp].d([m5C])[sp].d([m5C])[sp].d(T)[sp].d(T)[sp].[moe]([m5C])p.[moe](A)p.[moe](G)[sp].[moe](A)}$$$$ (last 3' nucleoside missing)”, the 3 h FOB score came out at 0 score 0-7.
“RNA1{[moe](G)[sp].[moe](T)p.[moe](T)p.[moe]([m5C])p.[moe]([m5C])p.d(T)[sp].d(T)[sp].d(A)[sp].d([m5C])[sp].d(A)[sp].d(A)[sp].d(T)[sp].d(T)[sp].d(A)[sp].d(T)[sp].[moe]([m5C])p.[moe](T)p.[moe](A)[sp].[moe](T)}$$$$ (last 3' nucleoside missing)”: the 3 h FOB score amounted to 3 score 0-7.
Take “RNA1{[moe](G)[sp].[moe](T)p.[moe]([m5C])p.[moe](T)p.[moe](T)p.d(G)[sp].d(T)[sp].d(T)[sp].d([m5C])[sp].d(A)[sp].d(G)[sp].d(T)[sp].d(G)[sp].d(T)[sp].d([m5C])[sp].[moe]([m5C])p.[moe](T)p.[moe](T)[sp].[moe]([m5C])}$$$$ (last 3' nucleoside missing)”: the 3 h FOB score worked out at 6 score 0-7.
For the substance “RNA1{[moe](G)[sp].[moe]([m5C])[sp].[moe](T)[sp].[moe](A)[sp].[moe](A)[sp].d([m5C])[sp].d(T)[sp].d(G)[sp].d(G)[sp].d(T)[sp].d(T)[sp].d(T)[sp].d(G)[sp].d([m5C])[sp].d([m5C])[sp].[moe]([m5C])[sp].[moe](T)[sp].[moe](T)[sp].[moe](G)}$$$$ (last 3' nucleoside missing)”, the 3 h FOB score was 7 score 0-7.
In turn, “RNA1{[moe](G)[sp].[moe]([m5C])p.[moe](A)p.[moe](A)p.[moe](A)p.d(G)[sp].d(A)[sp].d([m5C])[sp].d(T)[sp].d(T)[sp].d(T)[sp].d(G)[sp].d(A)[sp].d(A)[sp].d(A)[sp].[moe](T)p.[moe]([m5C])p.[moe](T)[sp].[moe]([m5C])}$$$$ (last 3' nucleoside missing)” yielded a 3 h FOB score of 0 score 0-7.
Then “RNA1{[moe](G)[sp].[moe]([m5C])p.[moe](A)p.[moe](A)p.[moe]([m5C])p.d(T)[sp].d(T)[sp].d(A)[sp].d(A)[sp].d(T)[sp].d(A)[sp].d(A)[sp].d([m5C])[sp].d([m5C])[sp].d(T)[sp].[moe](T)p.[moe](A)p.[moe](G)[sp].[moe](T)}$$$$ (last 3' nucleoside missing)”, with 0 score 0-7.
